According to patent US10526329B2 (Galapagos NV, priority 2013, dated 2020):

Legend:
hENPP2 = hENPP2 (Homo sapiens (Human), UniProt Q13822); experiment: hENPP2 biochemical assay, LPC as substrate
Procedure: The principle of the assay consists in quantifying the released choline with an enzymatic method using choline oxidase and peroxidase. Choline oxydation by choline oxydase releases betaine and peroxide. The latter is quantified in presence of HRP that converts the peroxide detection agent TOOS and 4-aminoantipyrine into quinoneimine dye. The appearance of quinoneimine dye is measured spectrophotometrically at 555 nm and is proportional to the amount of choline released by ENPP2. Inhibition of ENPP2 will result in a decrease of the signal.
Compound IC50 values are determined in a hENPP2 (UniProtKB/SwissProt Sequence ref Q13822) biochemical assay using LPC as substrate.
The enzyme is diluted in 50 mM Tris-HCl pH 8.5, 500 mM NaCl, 5 mM KCl, 10 mM CaCl2, 0.1% fatty acid free BSA in a total volume of 10 μL. the reaction is started by the addition of 10 μL of 150 μM LPC (palmitoyl 16:0) diluted in the same buffer as described above and the mixture is incubated at 37° C. for 30 min. The reaction is terminated and choline quantified by the addition of a 25 μL of a mixture containing 0.6 U/mL of choline oxidase, 0.6 U/mL of peroxydase, 1.8 mM TOOS, 1.2 mM amino-antipyrine, 20 mM EGTA (stop-developer solution) diluted in the buffer described above. […] is read on the Envision after an incubation of 30 min at room temperature (Excitation 555 nm, excitation light=70%).

[1] = system: TS-exposed female C57BL/6J mice; experiment: Tobacco smoke (TS) model, lungs inflammatory cells recruitment; format: in vivo, mouse; conditions: days 6 to 11, TS-exposed mice
Procedure: The aim of this experiment is to evaluate the efficacy and potency of a test compound administered p.o., once or twice daily on days 6 to 11, vs reference compounds, on pulmonary inflammation induced by 11 days of TS-exposure in female C57BL/6J mice, by assessing the effect of a test compound on the tobacco smoke induced recruitment of inflammatory cells to the lungs.
The test compounds are formulated in PEG200/0.5% methylcellulose (25/75, v/v) and are given at a dose volume of 10 mL/kg. Roflumilast and Dexamethasone are included as positive […] control, respectively. Each treatment group consists of 10 mice.
A first group of mice is subjected to daily TS-exposure for 5 consecutive days and sacrificed on the day 6, 24 h after the final TS-exposure.
A second group is exposed to air for 5 consecutive days (sham exposure) and sacrificed on the day 6, 24 h after the final air-exposure.
Compound and reference-treated groups are subjected to daily TS-exposure for 11 consecutive days and sacrificed on the day 12, 24 h after the final TS-exposure. Mice are dosed p.o. on days 6 to 11, twice daily, 1 h prior to and 6 h after each TS-exposure, with either vehicle, or the test compound at 3, 5, 10 or 30 mg/kg. Another group is dosed p.o. on days 6 to 11, once daily, 1 h prior to each TS-exposure, with either vehicle, or the test compound at 10 mg/kg.
An additional group is dosed p.o., once daily, on days 6 to 11, with roflumilast at 5 mg/kg, 1 h prior to each TS-exposure. Dexamethasone is dosed p.o., twice daily, on days 6 to 11, at 0.3 mg/kg, 1 h prior to and 6 h after each TS-exposure.
For each mouse, a BAL is performed using 0.4 mL of PBS. The lavage fluid is centrifuged, the supernatant removed and the resulting cell pellet re-suspended for total cell counts and cytospin slide preparation. […]
The lungs are dissected out and the left lobes are removed, snap-frozen and stored at −80° C. […] Cell data are presented as individual data points for each animal and the mean value calculated for each group. […]
Percentage inhibitions for the cell data are calculated using the formula below: […]

| SMILES | IC50 (hENPP2) | number of cells recovered in the BALF, in particular macrophage cells, epithelial cells, and neutrophils ([1]; 3 mg/kg twice daily p.o.) | number of cells recovered in the BALF, in particular macrophage cells, epithelial cells, and neutrophils ([1]; 10 mg/kg twice daily p.o.) |
| --- | --- | --- | --- |
| CCc1nc2ccc(C3CCN(C4=NCC(CO)O4)CC3)cn2c1N(C)c1nc(-c2ccc(F)cc2)cs1 (stereo not shown) [Compound 222] | 500 to 1000 nM |  |  |
| CCc1nc2c(C)cc(N3CCN(CC(=O)N4CC(O)C4)CC3)cn2c1N(C)c1nc(-c2ccc(F)cc2)c(C#N)s1 [Compound 2, 2-((2-ethyl-6-(4-(2-(3-hydroxyazetidin-1-yl)-2-oxoethyl)piperazin-1-yl)-8-methylimidazo[1,2-a]pyridin-3-yl)(methyl)amino)-4-(4-fluorophenyl)thiazole-5-carbonitrile] |  | significantly inhibited | significantly inhibited |
| CCc1nc2c(F)cc(N3CCN(CC(=O)N4CC(O)C4)CC3)cn2c1N(C)c1nc(-c2ccc(F)cc2)c(C#N)s1 [Compound 12, 2-((2-ethyl-8-fluoro-6-(4-(2-(3-hydroxyazetidin-1-yl)-2-oxoethyl)piperazin-1-yl)imidazo[1,2-a]pyridin-3-yl)(methyl)amino)-4-(4-fluorophenyl)thiazole-5-carbonitrile] |  |  | significantly inhibited |
